Literature values, collected in the PKSmart pharmacokinetics tables (Seal et al. 2025).

Assay: Lombardo, Berellini, Obach 2018, Drug Metab Dispos 46:1466, doi 10.1124/dmd.118.082966
Conditions: human; for MRT / Vd / clearance / half-life: in vivo, iv; for fraction unbound: plasma

SMILES | MRT [h] | Vd [L/kg] | clearance [mL/min/kg] | half-life [h] | fraction unbound
CN(C)C(=O)Oc1cc(OC(=O)N(C)C)cc(C(O)CNC(C)(C)C)c1 (stereo not drawn) | 1.4 | 1.6 | 18 | 2.6 | –
Fc1ccc([C@@H]2CCNC[C@H]2COc2ccc3c(c2)OCO3)cc1 | 17 | 18 | 18 | 13 | 0.06
COc1ccc2c(c1)c(CC(=O)O)c(C)n2C(=O)c1ccc(Cl)cc1 | 1.2 | 0.096 | 1.3 | 1.4 | –
OCCN1C[C@H](O)[C@@H](O)[C@H](O)[C@H]1CO | 2.7 | 0.28 | 1.7 | 2.3 | –
CC(O)C(=O)Nc1c(I)c(C(=O)NC(CO)CO)c(I)c(C(=O)NC(CO)CO)c1I (stereo not drawn) | 2.5 | 0.28 | 1.9 | 2.1 | 1
Cc1ccccc1-c1cc(N2CCN(C)CC2)ncc1N(C)C(=O)C(C)(C)c1cc(C(F)(F)F)cc(C(F)(F)F)c1 | 32.6 | 5.54 | 2.83 | 34.3 | 0.003
CC(=O)O[C@H]1C[C@@H]2CC[C@@H]3[C@H](CC[C@@]4(C)[C@H]3C[C@H]([N+]3(C)CCCCC3)[C@@H]4OC(C)=O)[C@@]2(C)C[C@@H]1N1CCCCC1 | 1.1 | 0.3 | 4.5 | 1.4 | 0.25
C[C@@H]1C[C@H]2[C@H]3CC=C4CC(=O)C=C[C@]4(C)[C@@]3(Cl)[C@@H](O)C[C@]2(C)[C@@]1(OC(=O)c1ccco1)C(=O)CCl | 2.9 | 2.2 | 12.7 | 4.4 | –
COCCn1c2c([n+](Cc3cnccn3)c1C)C(=O)c1ccccc1C2=O | 34.5 | 23.7 | 11.3 | 24.8 | –
C[C@H]1O[C@@H](O[C@H]2[C@@H](O)C[C@H](O[C@H]3[C@@H](O)C[C@H](O[C@H]4CC[C@@]5(C)[C@H](CC[C@@H]6[C@@H]5C[C@@H](O)[C@]5(C)[C@@H](C7=CC(=O)OC7)CC[C@]65O)C4)O[C@@H]3C)O[C@@H]2C)C[C@H](O)[C@@H]1O | 40 | 4.1 | 1.7 | 38 | –
CN1[C@@H]2C[C@@H](OC(=O)C(CO)c3ccccc3)C[C@H]1[C@@H]1O[C@@H]12 (stereo partly drawn) | 3.2 | – | – | – | –
OCc1cc([C@@H](O)CNCCCCCCOCCOCc2c(Cl)cccc2Cl)ccc1O | 1.53 | 2.38 | 25.7 | 2.4 | 0.06
C[C@H](CCc1ccccc1)NC[C@H](O)c1ccc(O)c(C(N)=O)c1 | 2.8 | – | 29 | 3.3 | –
CC(C)C1C(=O)NC(CCCNC(=N)N)C(=O)NCC(=O)NC(CC(=O)O)C(=O)NC(Cc2ccccc2)C(=O)N1C (stereo not drawn) | 3.67 | 0.26 | 1.18 | 3.6 | –
Cc1ccc(C(CN)CC(=O)O)cc1 (stereo not drawn) | 6.36 | 0.65 | 1.7 | 5.24 | 0.69
CC(C)(C)NC[C@H](O)COc1nsnc1N1CCOCC1 | 3 | 1.5 | 8.5 | 2.2 | –
C[C@@H](Cc1ccccc1)NC(=O)C(N)CCCCN (stereo partly drawn) | 0.6 | 0.6 | 17 | 1.2 | –

SMILES | MRT [h] | Vd [L/kg] | clearance [mL/min/kg] | half-life [h] | fraction unbound
O=c1[nH]cnc2[nH]ncc12 | 0.88 | 0.58 | – | – | –
Cc1ccc(S(=O)(=O)NC(=O)NN2C[C@H]3CCC[C@@H]3C2)cc1 | 17.5 | 0.43 | 0.41 | 16.4 | 0.03
C[C@H]1COc2c(C3(N)CC3)c(F)cc3c(=O)c(C(=O)O)cn1c23 | 2.32 | 0.68 | 4.87 | 2.1 | 0.79
C[C@@H](OC[C@@]1(c2ccccc2)CC[C@]2(CCC(=O)N2)CN1)c1cc(C(F)(F)F)cc(C(F)(F)F)c1 | – | – | 0.38 | 148 | 0.002
C[C@@H]1C[C@H]2[C@@H]3C[C@H](F)C4=CC(=O)C=C[C@]4(C)[C@H]3[C@@H](O)C[C@]2(C)C1C(=O)CO (stereo partly drawn) | 1.6 | 0.68 | 7 | 1.3 | 0.04
CN[C@@H]1[C@H](O[C@H]2[C@H](O[C@H]3[C@H](O)[C@@H](O)[C@H](NC(=N)N)[C@@H](O)[C@@H]3NC(=N)N)O[C@@H](C)[C@]2(O)C=O)O[C@@H](CO)[C@H](O)[C@H]1O | 7.3 | 0.34 | 0.78 | 4.3 | 0.65
COC(=O)C1=C(C)NC(C)=C(C(=O)OCCCN2CCC(c3ccccc3)(c3ccccc3)CC2)[C@@H]1c1cccc([N+](=O)[O-])c1 | 15 | 8.4 | 9.3 | 22 | –
CCOC(=O)N[C@@H]1CC[C@@H]2[C@H](CC3C(=O)O[C@H](C)[C@H]3[C@H]2/C=C/c2ccc(-c3cccc(F)c3)cn2)C1 (stereo partly drawn) | 183 | 3.74 | 0.34 | 149 | 0.01
Nc1cc(OCC2CC2)c(C(=O)NC2CN3CCC2CC3)cc1Cl (stereo not drawn) | 12.3 | 3.9 | 5.2 | 13.5 | –
C[C@H]1c2cccc(O)c2C(=O)C2=C(O)[C@]3(O)C(=O)C(C(N)=O)=C(O)[C@@H](N(C)C)[C@@H]3[C@@H](O)[C@@H]21 | 25 | 0.69 | 0.46 | 14 | –
Cc1ncc([N+](=O)[O-])n1C[C@H](O)CCl | 18.1 | 1.16 | 1.08 | 12 | 0.88
CN(C)CCN(Cc1cccs1)c1ccccn1 | 2 | 3.3 | 28 | 1.6 | –
FC(F)(F)C(F)(F)C(F)(F)F | 0.05 | 1.6 | 591 | 0.02 | –
O=C(O)C[C@@H]1CC[C@H](NC(=O)Cc2cccs2)B(O)O1 | 1.64 | 0.29 | 2.94 | 1.34 | 0.67
CCCCCc1cc(O)c2c(c1)OC(C)(C)[C@@H]1CCC(C(=O)O)=C[C@@H]21 | 18.1 | 1.28 | 1.2 | 17.6 | –
COc1cc(CC(=O)NCC(=O)N(CCC(=O)O)Cc2ccc(OC)c(OC)c2)ccc1NC(=O)Nc1ccccc1C | 0.38 | 0.25 | 11 | 1.6 | –
